In publication PMC12040169 (PLOS Biology, 2025):

Test: in vitro
Conditions: human, hela cells

SMILES	viability at 28.5 h, 10 µM (% viability)	further results
COC(=O)CCC(=O)NNC(=O)c1cccc(Br)c1 [CBK261606]	107%	–
Cc1ccc(CCNC(=O)c2snnc2C)cc1C [CBK282051]	89.6%	–
Cc1cc(=O)nc(SC(C)C(=O)O)[nH]1 (stereo not drawn) [CBK264630]	95.3%	–
O=C(Nc1ccc2c(c1)OCCO2)c1cnc(-c2ccc(Cl)cc2)c(-c2cccnc2)c1 [CBK037528]	110%	–
CC(C)CC(Nc1ncnc2c1oc1ccccc12)C(=O)O (stereo not drawn) [CBK293974]	100%	–
Cn1cc(CC2CCN(Cc3ccncc3)C2)cn1 (stereo not drawn) [CBK304796]	107%	–
CC(C)c1ccc(C2C(C(=O)c3ccco3)=C(O)C(=O)N2CCCN(C)C)cc1 (stereo not drawn) [CBK264549]	94.8%	–
Cc1ncsc1C(=O)N1CCC[C@H](C(=O)c2cccs2)C1 [CBK284260]	80.2%	–
CC#Cc1cn([C@H]2C[C@@H](O)[C@@H](CO)O2)c(=O)nc1N [CBK201257]	105%	–
O=C(CCCN1C(=O)c2ccccc2C1=O)Nc1ccc(C(=O)O)cc1 [CBK287043]	94.2%	–
Cc1cc(NC(=O)CS(=O)(=O)c2cccc(C(F)(F)F)c2)on1 [CBK306015]	85.5%	–
COc1cc(OC)c(C(C)=O)c(OCCOc2nccnc2N2CCNCC2)c1 [CBK013497T]	95.8%	–
Clc1ccc2c(c1)CCC(NCC1COc3ccccc3O1)C2 (stereo not drawn) [CBK013077C]	97.5%	–
Oc1cnnc(Nc2ccc(Nc3ccccc3)cc2)n1 [CBK287921]	101%	–
Fc1ccccc1-c1cn2ccnc2c(NCCc2cccnc2)n1 [CBK037473]	88.1%	–
CCOc1cccc(/C=N\NC(=O)C2COc3cc4ccccc4cc3O2)c1O (stereo not drawn) [CBK262846]	110%	–
Cc1ccc(-c2cc(=O)c3cc(OCC(=O)Nc4sc5c(c4C#N)CCCC5)ccc3o2)cc1 [CBK269062]	96.6%	–
Cc1ccc(-n2sc(=O)n(CCc3ccccc3)c2=O)cc1 [CBK113496]	110%	–
COCCNC(=O)c1cc(-c2ccccc2C)cnc1NS(C)(=O)=O [CBK106422]	82.9%	–
COc1ccccc1NC(=O)c1c(NC(=O)Cc2ccccc2)sc2c1CCC(C(C)(C)C)C2 (stereo not drawn) [CBK264102]	94.1%	–
O=[N+]([O-])c1ccc(CN2CCN(Cc3cc(Br)ccc3O)CC2)cc1 [CBK263652G]	88.9%	–
O=C(O)[C@@H]1CCN(Cc2ccccc2)C[C@H]1c1ccccc1 [CBK286840]	102%	–
Clc1ccc(-c2c[nH]c([C@@H]3COCCN3Cc3c[nH]cn3)n2)cc1 [CBK289316]	105%	–

SMILES	viability at 28.5 h, 10 µM (% viability)	further results
COc1ccc(NC(=O)c2cnccn2)c(OC)c1 [CBK262240]	105%	–
N#CCCNCC1COc2ccccc2O1 (stereo not drawn) [CBK026615]	97.7%	–
Oc1ccc(/C=N/N=C/c2ccc(O)c(O)c2)cc1O [CBK261641]	95%	–
Nc1ncc(-c2ccc(F)cc2)c(C2CCCN(C(=O)CCc3ccc(F)cc3)C2)n1 (stereo not drawn) [CBK286092]	89%	–
CCn1c(SCc2cc(C)no2)nnc1C1CC1 [CBK297758]	102%	–
Cc1ccc(C)n1-c1ccc(C(=O)OCC(=O)c2cccc([N+](=O)[O-])c2)cc1 [CBK264427]	97.8%	–
CCn1c(C2CCN(C(=O)c3cc(C(F)(F)F)n[nH]3)CC2)nn(C)c1=O [CBK307184]	88.9%	–
CCOC(=O)C1CCN(S(=O)(=O)c2ccc(NC(=O)N3CCCC3)cc2)CC1 [CBK269823]	100%	–
CCN1CCN(S(=O)(=O)c2cccc([N+](=O)[O-])c2)CC1 [CBK266675]	83.8%	–
C1=CC2N=C(SCc3ccccc3)OC2C=C1 (stereo not drawn) [CBK021412]	92.6%	–
Cc1nn(C)cc1-c1cc(C(=O)Nc2ccccc2C2CC2)on1 [CBK281412]	95.9%	–
CN(Cc1ccc(-c2ccc(S(C)(=O)=O)cc2)nc1)C1CCN(C(=O)Oc2ccc(F)cc2)CC1 [CBK166097]	–	viability at 28.5 h, 10 µM: 91.5%
Cc1cc(Br)ccc1N1C(=O)NC(=O)/C(=C\c2ccc(-c3ccc(S(N)(=O)=O)cc3)o2)C1=O [CBK263413]	–	viability at 28.5 h, 10 µM (% viability, bulk resorufin, single well): 97.4%
Cc1nn(C)cc1-c1cncn1CC1(N(C)C)CCC(C)CC1 (stereo not drawn) [CBK281799]	88.9%	–
CN(C)c1ccc(-c2ncnn2CC(F)(F)F)cn1 [CBK307215]	88%	–
Oc1ccccc1/C=N/CC(O)C/N=C/c1ccccc1O [CBK261112]	103%	–
N#CCCn1cc(C(=O)N2CCOCC2)c(-c2cccs2)n1 [CBK306195]	110%	–
Cc1nc2sc(C(=O)OCc3cc(=O)oc4cc5c(cc34)CCC5)c(C)c2c(=O)[nH]1 [CBK297528]	114%	–
COc1ccc(C(=O)N2CCC3(CCCN(CCc4c[nH]c5ccccc45)C3)C2)cc1OC (stereo not drawn) [CBK137143]	89.9%	–
Cc1[nH]c(=O)[nH]c(=O)c1CCC(=O)OCc1nccn1Cc1ccccc1 [CBK297939]	82.1%	–
Cc1cccc(CN(CC(C)(C)CN)C(=O)Nc2ccccc2C(F)(F)F)n1 [CBK002409C]	105%	–
O=C(c1ccc(CO)o1)N1CCn2cc(C(F)(F)F)nc2C1 [CBK283914]	94%	–
O=C(c1cncnc1)N1CCC(Cc2ccccc2)CC1 [CBK200212]	92.8%	–

SMILES	viability at 28.5 h, 10 µM (% viability)	further results
O=C(NCc1ccccn1)c1cc2cc(F)ccc2[nH]1 [CBK107276]	102%	–
COc1cc(Nc2cccc(-c3ccco3)n2)cc(OC)c1OC [CBK037724]	108%	–
CCN(CC)C(=O)N1CCC(c2cccnc2)CC1 [CBK283535]	99.9%	–
NNc1nc(-c2ccc(Br)cc2)nc2ccccc12 [CBK262860]	94.6%	–
Cc1ccncc1C(=O)N1CCc2ccccc21 [CBK200400]	109%	–
O=C(CSCc1c(F)cccc1Cl)NCc1ccccc1Cl [CBK269155]	91.6%	–
Cc1cc(C)c(C(=O)N2CCN(CCNC(=O)C3CCCC3)CC2)[nH]1 [CBK305315]	89.5%	–
C[C@H](Cn1nc2c(cc1=O)CCCCC2)NC(=O)C1CCCC1 [CBK284546]	83.2%	–
O=C(CC1=C(O)C(=O)c2ccccc2C1=O)c1ccccc1 [CBK262002]	80.5%	–
OCCc1ccc(Nc2cc(-c3ccsc3)ncn2)cc1 [CBK090769]	103%	–
O=C(CCc1nc2ccccc2c(=O)[nH]1)N1CCN(Cc2ccc(Cl)s2)CC1 [CBK296937]	83.9%	–
CN(C)c1ccccc1-c1cnc(N2CCOCC2)c2nccn12 [CBK091280]	90.7%	–
COc1ccc(N2C(=O)CC(NNC(=O)CNC(C)=O)C2=O)cc1 (stereo not drawn) [CBK267228]	87.7%	–
COc1cc(CNCc2cccs2)ccc1OCC(N)=O [CBK267620C]	95.7%	–
Cc1ccnn1CCC(=O)N1CCCC1c1cc2cccnc2[nH]1 (stereo not drawn) [CBK282230]	111%	–
COC(=O)c1c(NC(=O)CC2Sc3ccccc3NC2=O)sc(C)c1C (stereo not drawn) [CBK264429]	103%	–
Cc1cc(C)c(NC(=O)C2CCCCN2C23CC4CC(CC(C4)C2)C3)c(C)c1 (stereo not drawn) [CBK261559C]	92.6%	–
OCc1ccc(-c2nccnc2N2CCCC2CO)cc1 (stereo not drawn) [CBK089053]	96.3%	–
CC(CN(C)C(=O)c1cocn1)Oc1ccc(Cl)c(Cl)c1 (stereo not drawn) [CBK304285]	97.6%	–
Cc1ccc(C(=O)N2CCN(C(=O)CN3CCN(C)CC3)C2)cc1 [CBK024841C]	76.4%	–
CC(C)(C)c1nc(NS(=O)(=O)c2ccc(Cl)cc2)sc1Br [CBK014258]	102%	–
OCCn1c(COc2cccc3cccnc23)nc2ccccc21 [CBK269942]	79.5%	–
CCOC(=O)N/N=C1\CCCCC1CC (stereo not drawn) [CBK016112]	84.7%	–

SMILES	viability at 28.5 h, 10 µM (% viability)	further results
CC1Cc2cc(C(O)(CCN(C)C)c3ccccc3)ccc2O1 (stereo not drawn) [CBK011764]	110%	–
O=C(COc1ccccc1[N+](=O)[O-])Nc1cnc(-c2cccc(C(F)(F)F)c2)c(-c2ccco2)n1 [CBK036899]	86.3%	–
CCCNC(=O)Cn1nc(CC)n2c(cc3ccsc32)c1=O [CBK284130]	91.5%	–
COc1ccc(OCCNC(=O)c2ccc(-c3cccc(N(C)C)c3)nc2N(C)C(C)=O)cc1 [CBK076587]	92.8%	–
Cc1nccn1CC(=O)N1CCCC(C)(C(=O)NC2CCCC2)C1 (stereo not drawn) [CBK282210]	91.8%	–
CC1CCCN(C(=O)CCc2nc3sc4c(c3c(=O)[nH]2)CCCC4)C1 (stereo not drawn) [CBK306073]	87.5%	–
c1csc(-c2nccnc2NCCCN2CCOCC2)c1 [CBK036632]	84.6%	–
Cc1ccccc1C(=O)NC(=S)Nc1sc2c(c1C#N)CCCC2 [CBK264403]	98.3%	–
O=C(c1ccco1)N1CCN(c2cncc(-c3ccc4ccccc4c3)n2)CC1 [CBK065184]	89%	–
CN(C)[C@@H]1CN(Cc2ccccc2O)C[C@H]1c1cn(C)c2ccccc12 [CBK284895]	88.3%	–
Cn1c(=O)c2c(nc(NCc3ccccc3)n2C)n(C)c1=O [CBK139872]	95.9%	–
Cc1nn(Cc2cccc(Oc3ccccc3)c2)c(C)c1NC(=O)c1nc2ncccn2n1 [CBK267632]	89%	–
Oc1cc(C(F)(F)F)nc(N2CCc3ccccc3C2)n1 [CBK000344]	82%	–
Cc1cc(C)cc(CNC(=O)NCCc2cccs2)c1 [CBK043459]	103%	–
CSc1nc2ccccc2c2nc(-c3ccncc3)nn12 [CBK288566]	99.7%	–
O=C(c1ccc(F)cc1)N1CCC(Oc2nccnc2OCc2ccc(Cl)c(Cl)c2)CC1 [CBK160721]	85.9%	–
Cc1ccn2c(F)c(C(=O)N3CCCCC3CN3CCOCC3)nc2c1 (stereo not drawn) [CBK307028]	82%	–
O=C(c1nc2ccccc2[nH]1)N1CCC(F)CC1 [CBK200278]	90.3%	–
COc1ccc(CCN2CNc3c(c(=O)n(C)c(=O)n3C)C2)cc1OC [CBK074818]	86%	–
CCOC(=O)CSC1=NNC(C)(c2c(O)c3ccccc3n(CC)c2=O)N1 (stereo not drawn) [CBK009370]	92.5%	–
CCOc1ccc(Nc2nc(-c3ccc(C)cc3C)c(CC(=O)O)s2)cc1 [CBK264187]	62.5%	–
